Data as given in patent US6350740B1, “Transplatinum complexes as cytotoxic and anticancer agents” (Virginia Commonwealth University, priority 2000, dated 2002).
Read-outs that look alike come from different tables or passages of the source.

Experiments:
[1] = test system: Daudi; test: Cytotoxicity by cell proliferation, Daudi cells; assay type: cell-based; conditions: read-out: IC50 for indicated cell line Daudi
Protocol: (§1) The cytotoxicity of the novel trans-platinum compounds was assayed through the standard protocols of the NCI Developmental Therapeutics (HIV) and NIAID (Herpes Viruses) Screening Programs.
(§2) http://www.niaid.nih.gov/dmid/apdsame.html. IC50 is cytotoxic dose in cell carriers.
(§3) The cytotoxicity of several nucleobase compounds of the general formula SP-4-2-[PtX(L)(L′)(B)]^+ was assessed and the results are given in Table I. The cell lines employed were human foreskin fibroblast (HFF), Daudi, and CEM-SS, a T-cell line typically used to csrry snd maintain human imnmunodefficiency virus (HIV). The lC50 values for HFF and Dsudi cell lines were determined by cell proliferation as referenced above. The IC50 values for the CEM-SS cell line was determined by XTT colorimetric assays as referenced above.

[2] = test system: human foreskin fibroblast (HFF); test: Cytotoxicity by cell proliferation, HFF cells; assay type: cell-based; conditions: read-out: IC50 for indicated cell line HFF
Protocol: as §1, §2, §3

[3] = test system: CEM-SS, a T-cell line; test: Cytotoxicity by XTT colorimetric assay, CEM-SS cells; assay type: cell-based; conditions: read-out: IC50 for indicated cell line CEM-SS
Protocol: as §1, §2, §3

[4] = Water-solubility compared with the parent compound; assay type: physicochemical; conditions: statement in words, no values
[5] = test system: L1210 Leukemia; conditions: murine L1210 leukemia; J. Med. Chem. 32:2240; cited from earlier work
[6] = test system: A 2780; conditions: A 2780 cells
[7] = test system: L1210 Leukemia; conditions: for in vivo antitumor activity: murine L1210 leukemia
From the text: b: %T/C is % average survival in days of treated animals/average survival in days of control animals. All tests performed as reported in references in a above. 50×3 refers to dose (mg/kg) and schedule (drug injection at 1,5,9 days after tumor inoculation).

Compound	IC50 [1] [µM]	IC50 [2] [µM]	IC50 ([3]; first CEM-SS column) [µM]	IC50 ([3]; second CEM-SS column) [µM]	also measured
CCn1c[n+]([Pt-2]([NH2])([NH3+])[Cl])c2c(=O)[nH]c(N)nc21 (stereo not drawn) [Compound 1, trans-[PtCl(9-ethylguanine)(NH3)2]^+]	7.9	18.9	–	–	–
CCn1c[n+]([Pt-2]([NH2])([Cl])[n+]2ccsc2)c2c(=O)[nH]c(N)nc21 (centres unmarked) [Compound 2, SP-4-2-[PtCl(9-ethylguanine)(NH3)(thiazole)]^+]	18.1	11.2	47.3	24.6	–
CCn1c[n+]([Pt-2]([NH2])([Cl])[n+]2cccc3ccccc32)c2c(=O)[nH]c(N)nc21 (centres unmarked) [Compound 4]	0.93	25.9	47.4	31.7	–
CCn1c[n+]([Pt-2]([NH2])([Cl])[n+]2ccc3ccccc3c2)c2c(=O)[nH]c(N)nc21 (centres unmarked) [Compound 5, SP-4-2-[PtCl(9-ethylguanine)(NH3)(isoquinoline)]^+]	4.8	2.8	–	–	–
CCn1c[n+]([Pt-2]([Cl])([n+]2ccc(C)cc2)[n+]2ccc(C)cc2)c2c(=O)[nH]c(N)nc21 [Compound 6, trans-[PtCl(9-ethylguanine) (4-picoline)2]^+]	0.92	21.7	1.9	2	water-solubility and bioavailability versus parent trans-[PtCl2(4-pic)2] [4]: significant water-solubility and bioavailability over the parent compound
Cn1ccc(N)[n+]([Pt-2]([NH2])([Cl])[n+]2cccc3ccccc32)c1=O (centres unmarked) [Compound 9, SP-4-2-[PtCl(1-methylcytosine)(NH3)(quinoline)]^+]	14.1	38.7	50.4	33.2	–
Cn1ccc(N)[n+]([Pt-2]([NH2])([Cl])[n+]2ccc3ccccc3c2)c1=O (centres unmarked) [Compound 10, SP-4-2-[PtCl(1-methylcytosine)(NH3)(isoquinoline)]^+]	21.6	> 56.4	–	–	–
[Cl][Pt][Cl].c1ccncc1.c1ccncc1 [trans-[PtCl2(pyridine)2], reference compound]	–	–	–	–	in vivo antitumor activity, previously reported [5]: totally inactive; A 2780 IC50 [6]: 0.2 µg/mL; L1210 Leukemia % T/C ([7]; 50 × 2: 50 mg/kg, injected twice only): 106 (50 × 2) %; in vivo antitumor activity [7]: no activity
SP-4-2-[PtCl(1-methylcytosine)(NH3)(thiazole)] [Compound 8]	–	> 52	–	–	–
SP-4-2-[PtCl(9-ethylguanine) (NH3)(benzothiazole)]^+ [Compound 3]	9.8	11.2	–	–	–
trans-[PtCl(1-methylcytosine)(NH3)2]^+ [Compound 7]	15	> 45.2	–	–	–
trans-[PtCl(Me2SO)(pyridine)2]^+	–	–	–	–	A 2780 IC50 [6]: 0.3 µg/mL; L1210 Leukemia % T/C ([7]; 50 × 3: 50 mg/kg, injection at 1,5,9 days after tumor inoculation, T/C >150% indicative of activity): 155 (50 × 3) %; in vivo antitumor activity [7]: some antitumor activity
